Results taken from ChEMBL document CHEMBL1201862, “PubChem BioAssay data set” (2004).
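Tested at 5 concentrations; 48 h exposure; 96-well plates; endpoints linearly interpolated, else capped at highest concentration. Here, GI50 denotes the concentration required for 50% inhibition of growth.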 Activity calls are given as the source filed them. Rule as the data show it: active = GI50 up to about 1.1 µM and inactive = higher.

What was measured:
Test in all cases: NCI-60 cell line screen, 48 h
MDA-MB-435 = system: MDA-MB-435
CAKI-1 = system: CAKI-1
T47D = system: T47D
LOX IMVI = system: LOX IMVI
RXF 393 = system: RXF 393
HCT-116 = system: HCT-116
SF-295 = system: SF-295
HOP-62 = system: HOP-62
PC-3 = system: PC-3
SK-MEL-5 = system: SK-MEL-5
SK-MEL-28 = system: SK-MEL-28
OVCAR-8 = system: OVCAR-8
EKVX = system: EKVX
OVCAR-3 = system: OVCAR-3
A498 = system: A498
K562 = system: K562
MDA-N = system: MDA-N
ACHN = system: ACHN
NCI-H23 = system: NCI-H23
HL-60 = system: HL-60

Measured: GI50

CC(=O)CC1(CBr)Nc2ccc([N+](=O)[O-])cc2NC1=O (stereo not given)
inactive: MDA-MB-435 > 100 µM | CAKI-1 > 100 µM | T47D 42.9 µM | LOX IMVI 52.1 µM | RXF 393 32.7 µM | HCT-116 31.8 µM | SF-295 > 100 µM | HOP-62 83.2 µM | PC-3 60.4 µM | SK-MEL-5 > 100 µM | SK-MEL-28 97.7 µM | OVCAR-8 > 100 µM | EKVX > 100 µM | OVCAR-3 28.1 µM | A498 > 100 µM | K562 83.8 µM | MDA-N > 100 µM | ACHN > 100 µM | NCI-H23 > 100 µM

Cc1c(C)c2c(c(N)c1C#N)C(=O)N(Cc1ccc(S(N)(=O)=O)cc1)C2=O
inactive: MDA-MB-435 > 100 µM | CAKI-1 > 100 µM | T47D > 39.2 µM | LOX IMVI 64.6 µM | RXF 393 7.46 µM | HCT-116 32.9 µM | SF-295 21.5 µM | HL-60 > 100 µM | HOP-62 4.07 µM | PC-3 > 64 µM | SK-MEL-5 > 100 µM | SK-MEL-28 > 100 µM | OVCAR-8 4.65 µM | EKVX > 45 µM | OVCAR-3 > 41.5 µM | A498 27.9 µM | K562 > 100 µM | MDA-N > 100 µM | ACHN > 42.6 µM | NCI-H23 18.9 µM

N#CC1C=Cc2ccccc2N1C(=O)Oc1ccccc1 (stereo not given)
inactive: MDA-MB-435 23.7 µM | CAKI-1 84.3 µM | T47D 28.2 µM | LOX IMVI 39.9 µM | RXF 393 66.4 µM | HCT-116 38.7 µM | HL-60 19.3 µM | PC-3 52.1 µM | SK-MEL-5 46.5 µM | SK-MEL-28 > 100 µM | OVCAR-8 48.8 µM | EKVX 42.4 µM | A498 33.1 µM | K562 32.3 µM | MDA-N 35.4 µM | ACHN 50.2 µM | NCI-H23 58.9 µM

CC(=O)N1CC(C)(C)c2c(C)c(O)c(C)c(C)c21
inactive: MDA-MB-435 > 100 µM | T47D > 100 µM | LOX IMVI > 100 µM | RXF 393 > 100 µM | HCT-116 > 100 µM | SF-295 > 100 µM | HL-60 > 100 µM | HOP-62 > 100 µM | PC-3 > 100 µM | SK-MEL-5 > 100 µM | SK-MEL-28 > 100 µM | OVCAR-8 > 100 µM | EKVX > 100 µM | OVCAR-3 > 100 µM | A498 > 100 µM | K562 > 100 µM | MDA-N > 100 µM | ACHN > 100 µM | NCI-H23 > 100 µM

COc1cccc(-c2nc(O)c3ccccc3n2)c1
inactive: MDA-MB-435 14.9 µM | CAKI-1 16.4 µM | T47D 21.8 µM | LOX IMVI 52.6 µM | RXF 393 25.4 µM | HCT-116 22.5 µM | SF-295 32.1 µM | HL-60 > 100 µM | HOP-62 17.5 µM | PC-3 20.1 µM | SK-MEL-5 24.3 µM | SK-MEL-28 28.1 µM | OVCAR-8 28.4 µM | EKVX 26.8 µM | OVCAR-3 21.2 µM | A498 22.4 µM | K562 38.5 µM | MDA-N 17.3 µM | ACHN 20.8 µM | NCI-H23 26.7 µM
